Results reported in a melting point compilation (Tetko et al.; mined from patent text by program, amines drawn as free bases though some values may be those of a salt).

| SMILES | melting point |
| --- | --- |
| CCCCc1nc(Cl)c(C(=O)OC(C)C)n1Cc1ccc2oc(-c3ccccc3-c3nnn[nH]3)c(Br)c2c1 | 105 to 106 °C |
| CCN(CC)C(=O)NC1CC2c3cccc4[nH]c(C#Cc5cccs5)c(c34)CC2N(C)C1 (stereo not drawn) | 252 to 256 °C |
| COC(=O)c1cc(N)c(C(F)(F)F)cc1NC(C)=O | 143 to 152 °C |
| CCCCCCC(=O)CCCC(=O)O | 58 to 59 °C |
| Oc1ccc(Nc2cc(Cl)ncn2)cc1 | 241 to 244 °C |
| Brc1ccc2c(CCN3CCCCC3)c(-c3ccccc3)[nH]c2c1 | > 230 °C |
| Cc1cc(OCC(=O)Nc2cccc(C(=O)O)c2)ccc1C(C)C | 188 to 189 °C |
| CS(=O)(=O)Nc1ccc(OCC2CCNCC2)cc1 | 180 to 183 °C |
| CCCCc1nc(Cl)c(CC(=O)OC)n1Cc1ccc(NS(=O)(=O)C(F)(F)F)cc1 | 154 to 157 °C |
| CNC1CCCN(c2c(F)cc3c(=O)c(C(=O)O)cn(C4CC4)c3c2OC)C1 (stereo not drawn) | 134 to 135 °C |
| CC1(c2cccc(S(N)(=O)=O)c2)OCCO1 | 155 to 157 °C |
| COC(=O)CC(=O)Cc1cc(F)c(F)cc1F | 37 to 39 °C |
| Cc1nc(OCc2cccc(C(F)(F)F)c2)c(C(=O)Nc2ccccc2)s1 | 113 °C |
| COc1nc2c(C)cc(C)cc2c(-c2ccccc2Cl)c1NC(=O)Nc1cccc(C(F)(F)F)c1 | 151 to 153 °C |
| COc1ccc2c(C)c(F)ccc2c1C(F)(F)F | 97 to 99 °C |
| COC(=O)[C@@H](C)N[C@@H](CC(C)(C)C)C(=O)O | 120 to 124 °C |
| O=c1n(Cc2ccc([N+](=O)[O-])cc2)c2ccc(Cl)cc2n1C1CCCCC1 | 139 °C |
| CC(=O)N(C(C)=O)c1c(C#N)cnn1-c1ncc(C(F)(F)F)cc1Cl | 130 to 132 °C |
| COc1ccc(CN2C(=O)[C@H](N3C(=O)c4ccccc4C3=O)[C@@H]2C(=O)OCc2ccccc2)c(OC)c1 (relative stereo) | 198 to 200 °C |
| Nc1ccc(S(=O)(=O)Nn2cc(-c3ccccc3)c3ccccc32)cc1 | 176 to 177 °C |
| Cc1cc(-n2ccnc2)c2cccc(OCc3c(Cl)ccc(S(=O)(=O)N4CCC[C@H]4C(=O)N(C)CCCN(C)C)c3Cl)c2n1 | 80 °C |
| COc1ccc(-c2cc(=O)n(CC(C)C)nc2-c2ccc(OC)c(F)c2)cc1F | 154 °C |
| Nc1nccc(-c2c[nH]c3nccc(Cl)c23)n1 | > 210 °C |
| COC(=O)c1cc(C2OC(=O)CC(C)O2)cnc1C1=NC(C)(C(C)C)C(=O)N1 (stereo not drawn) | 65 to 75 °C |
| CCc1nc2c(N)nc3ccccc3c2n1CCOCCNS(C)(=O)=O | 169 to 171 °C |

| SMILES | melting point |
| --- | --- |
| C[C@@H](O)Cn1ncc2ccc(O)c([N+](=O)[O-])c21 | 70 to 74 °C |
| COc1ccc(-c2nc(C)c(-c3cccnc3)n2O)cc1OC | 131 to 135 °C |
| COc1cc2[nH]cc(C(=O)NN3CCNC3=O)c(=O)c2cc1OC | > 300 °C |
| O=C(CN1CSCC1=O)N1CCC(c2c[nH]c3ccccc23)CC1 | 174 to 175 °C |
| N#CCc1ccc(-c2nc3ccccc3o2)cc1N | 198 to 199 °C |
| CC(C)Cn1c(-c2c(F)cccc2F)c(Cl)nc(-n2cccn2)c1=O | 118 to 119 °C |
| O=c1[nH]c2cc(F)c(NCC3CCc4ccccc4C3)cc2o1 (stereo not drawn) | 177 to 178 °C |
| CCCCC(=O)Nc1nc2ccc(Cl)cc2nc1NC(=O)CCCC | 171 to 173 °C |
| O=c1ccn(-c2c(O)c3ccc(Cl)cc3[nH]c2=O)cc1 | 340 °C |
| CN(c1ccccc1)c1nc(N2CCOCC2)nc(-n2ccnc2)n1 | 119 to 120 °C |
| COc1cc(OCc2ccccn2)ccc1/C=C/c1cc(/C=C/c2ccc3ccn(S(C)(=O)=O)c3c2)n[nH]1 | 212 to 214 °C |
| CC(=NO)c1ccc2c(c1O)OC(CO)CO2 (stereo not drawn) | 162 °C |
| CNC(=S)n1ncnc1N | 184 to 185 °C |
| CC(C)(C)OC(=O)Nc1cc(N2CCC3(CC2)OCCO3)c(-c2ccccc2F)cc1N | 198 °C |
| CC(C)c1ccc(C(C)(C)C)c(O)c1C(=O)Nc1ccc(S(=O)(=O)C(F)(F)F)cc1Cl | 116 °C |
| CCc1c(C)nc2n1N=C(c1ccc(N)cc1)c1cc3c(cc1C2)OCO3 | 227 to 228 °C |
| CC1Cc2ccc(Br)cc2C(c2ccc([N+](=O)[O-])cc2)=NN1C(N)=O (stereo not drawn) | 193 to 203 °C |
| CN(C(=O)C(C)(C)c1cc(C(C)(C)C)c(O)c(C(C)(C)C)c1)C1CC(C)(C)NC(C)(C)C1 | 168 to 173 °C |
| CCc1ccc(-c2ccc3c(c2)C=C(C(=O)Nc2ccc(CN(C)C4CCOCC4)cc2)CCN3C)cc1 | 164 to 165 °C |
| CC(=O)NCC1CN(c2ccc(N3CC4CCCN(C(=O)CO)C4C3)c(F)c2)C(=O)O1 (stereo not drawn) | 102 to 110 °C |
| CCOC(=O)COc1cc(C)nc2c(O)cccc12 | 97 to 98 °C |
| Oc1c(C(Nc2ccc(C(F)(F)F)cc2)c2ccccn2)ccc2cccnc12 (stereo not drawn) | 158 to 161 °C |
| NNC(=O)CCCCC(=O)N(NC(=O)c1ccccc1O)C(=O)c1ccccc1O | 252 °C |
| NCC(CN)(CN)CN | 70 °C |
| Cn1c(=S)n(C)c(=O)n(-c2ccc(F)cc2F)c1=O | 156 to 159 °C |

| SMILES | melting point |
| --- | --- |
| Cc1cn2nc(SCc3ccccc3)nc2nc1C | 147 to 149 °C |
| COc1cc(C)nc(NC(=O)NS(=O)(=O)c2c(C)nn(C)c2OC)n1 | 183 to 184 °C |
| C=CCOc1cccc(C2=NNC(=O)CC2)c1 | 111 to 113 °C |
| CCCCCCNC(=O)Oc1ccc2ncccc2c1 | 89 °C |
| CC(C)(C)OC(=O)N1C[C@@H]2[C@H](F)CCC(c3ccccc3)(c3ccccc3)[C@@H]2C1 | 200 °C |
| CCc1nc2c(cnn2CC)c(NC2CCOCC2)c1CNC(=O)c1cc(C)cc(C(=O)NCc2cccc(-c3cccc(CC4CCN(C)CC4)c3)c2)c1 | 119 to 121 °C |
| CC(C)C(NS(=O)(=O)c1ccccc1)C(=O)NOCc1ccccc1 (stereo not drawn) | 163 to 165 °C |
| COc1cc(CO)c(OC)c(CCl)c1 | 48 to 50 °C |
| O=C1Nc2ccc(Cl)c(Cl)c2C(=O)N2CCC[C@@H]12 | 203 to 205 °C |
| COc1ccc(C(=O)c2cccc(C(=O)O)c2)cc1 | 183 to 186 °C |
| CCc1[nH]n(C2CCCC2)c2nc(-c3cccc(OCc4ccncc4)c3)nc(=O)c1-2 | 230 to 232 °C |
| Cc1nnc(COc2cccc3c2CN(C2CCC(=O)NC2=O)C3=O)o1 (stereo not drawn) | 206 to 208 °C |
| NC(=O)CN1CC2CCCCCC2C1=O (stereo not drawn) | 145 to 147 °C |
| O=C(CCNCc1cc(F)cc(F)c1)Nc1cccc2c1C(=O)c1c(NC(=O)CCNCc3cc(F)cc(F)c3)cccc1C2=O | 190 to 191 °C |
| CNC(=O)c1cc(-c2ccc(OC)cc2)nn(CC=Cc2ccc(Cl)cc2)c1=O | 184 to 185 °C |
| COc1nnc2n1-c1sc(CCC(=O)N3CCOCC3)cc1C(c1ccccc1Cl)=NC2 | 163 to 164 °C |
| CS(=O)(=O)CC(=O)Nc1c(C(=O)c2ccccc2)[nH]c2cc(Cl)ccc12 | 217 to 220 °C |
| O=C1NC(=S)SC1=Cc1cccc(Cl)c1Cl | 203 to 204 °C |
| CCOc1cc(C(CS(C)(=O)=O)N2C(=O)c3cccc(NC(=O)COCc4ccccc4)c3C2=O)ccc1OC (stereo not drawn) | 154 to 156 °C |
| O=C1CCCc2ccc(-c3ccccc3)cc21 | 67 °C |
| C=CCOc1cc(C(O)(C(F)(F)F)C(F)(F)F)cc2c(C)cc(=O)[nH]c12 | 214 to 216 °C |
| CCOC(=O)c1ccc(-c2ccc(F)cc2)cc1-c1ccc(OC)c(OC)c1 | 127 °C |
| CC(C)(C)C(C)(C)Nc1nc(NC(C)(C)C(C)(C)C)nc(N2CCNCC2)n1 | 183 to 185 °C |
| COc1cc(COc2nn(-c3ccccc3)cc2/C=C\c2cscn2)ccc1OCc1nc(-c2ccco2)oc1C | 137 to 138 °C |
| O=C(CN1CCC(Cc2ccc(F)cc2)CC1)Nc1ccc2c(c1)OCC(=O)N2 | 209 to 211 °C |

| SMILES | melting point |
| --- | --- |
| COc1ccccc1C(=O)N1CCN(C(=O)CN2CCC(O)(c3ccccc3)CC2)C(c2ccc(Cl)c(Cl)c2)C1 (racemic) | 112 to 114 °C |
| O=C(CCC(F)(F)F)Nc1ccccc1 | 187 °C |
| Cc1cc(C)n(-c2cnc(CN(C)C)c(Nc3ccc(Cl)cc3)n2)n1 | 112 to 114 °C |
| CC(=O)NCc1nc(NCCCOc2cccc(CN3CCCCC3)c2)n(C)n1 | 123 °C |
| CCCCN=C(CS(C)=O)c1cc2ccccc2cc1O (stereo not drawn) | 162 to 164 °C |
| O=C1CCCc2scnc21 | 121 to 122 °C |
| O=C(Nc1c(OCc2ccccc2)cccc1C(=O)O)c1ccccc1 | 114 to 116 °C |
| Cc1ccc2ccc(C)c(O)c2c1 | 124 to 125 °C |
| CCCCOCCOc1ccc(-c2ccc3c(c2)C=C(C(=O)OC)CCN3c2ccc(S(=O)(=O)NC)cc2)cc1 | 142 to 146 °C |
| COC(=O)c1nc(Cl)cnc1N=S(C)C | 167 to 169 °C |
| COCCOc1ccc(N=Nc2cc(S(=O)(=O)N3CCCC3)c(O)c3cccc(NS(C)(=O)=O)c23)cc1S(=O)(=O)Cl | 184 to 187 °C |
| CC(CCCc1ccc(F)cc1)c1cc(O)c2c3c(c(=O)oc2c1)CCC3 (stereo not drawn) | 133 to 135 °C |
| Cc1c(CCc2ccc3nc(N)sc3c2)ncn1C(c1ccccc1)(c1ccccc1)c1ccccc1 | 200 to 203 °C |
| Cc1nccc(N2CCC(CN3CCN(S(=O)(=O)c4ccc(C(F)(F)F)cc4)CC3)CC2)n1 | 135 to 136 °C |
| c1cc(-c2nccs2)cc(-n2cnc3cc(-c4ccoc4)ccc32)c1 | 102 to 105 °C |
| CCOP(=O)(/C=C/c1ccc2cc(NC(=O)C(NC(=O)OC(C)(C)C)C(C)(C)C)cc(-c3cccc4ccccc34)c2n1)OCC (stereo not drawn) | 249 to 250 °C |
| CCCCCCCCCCCCCCCCCCOc1cc(OCCOc2ccc3ccccc3c2)cc(C(=O)OCc2ccccc2)c1 | 62 to 65 °C |
| CCOC(=NC(=O)Nc1ccc(Oc2ncc(C(F)(F)F)cc2Cl)cc1)c1c(F)cccc1F | 127 to 130 °C |
| CC(C(=O)O)c1ccc2c(c1)C(=O)Cc1ccccc1S2 (stereo not drawn) | 130 to 132 °C |
| COC(=O)c1cc(C)nc(OC)n1 | 101 to 103 °C |
| CSC1=N[C@@H](c2ccccc2)[C@H](c2ccccc2)N1 (relative stereo) | 132 to 134 °C |
| COC(=O)c1cc(OC)c(C)c2c1Oc1c(C=O)c(O)cc(C)c1C(=O)O2 | 264 to 265 °C |
| O=S(=O)(OCC(F)(F)C(F)F)c1ccc2ccccc2c1 | 89.6 °C |
